Data: patent US10479819B2 (priority 2014, dated 2019)
Read-outs that look alike come from different tables or passages of the source. Starred links: 1 amine or outer side, 2 acyl side, 3 side chain; linkers in the order of their positions; H or OH if unused. Non-standard residues stand in square brackets, D forms with d. Residues, ends and D or L forms follow the SMILES beside them. Groups on a side chain read outwards from the residue. *: point of attachment. C18 diacid = O=C(O)CCCCCCCCCCCCCCCCC(=O)*; γGlu = O=C(O)[C@H](CCC(=O)[*:2])N[*:1]; Palmitoyl = CCCCCCCCCCCCCCCC(=O)*; PEG2 = NCCOCCOCCC(=O)O; Aib = CC(C)(N)C(=O)O

What was measured:
[1] = molecular target: T1, human GCGR (Homo sapiens, UniProt P47871); assay: In vitro activity on GCGR, CRE-luciferase HEK-293 cells; format: cell-based
T1 construct: expressed in transfected cells
Protocol: 5000 of HEK-293 cells, which are used in CRE-luciferase system and express human GCGR or GLP-1R stably, were inoculated into 384 well plates according to […] DMEM/10% FBS media/well. […] After incubation, […] of luciferase reagent was added directly to each plate and mixed gently for 2 minutes. The plates were placed into an Elmer Perkin plate reader for reading. Concentration curve of the compound was made by drawing software Prism 5, and the EC50 value was calculated.

[2] = molecular target: T2, human GLP-1R (Homo sapiens, UniProt P43220); assay: In vitro activity on GLP-1R, CRE-luciferase HEK-293 cells; format: cell-based; conditions: for GLP-1R/GCGR: ratio of EC50 GLP-1R to EC50 GCGR
T2 construct: expressed in transfected cells
Outline: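 HEK-293 cells stably expressing human GLP-1R or human GCGR with CRE-luciferase reporter, 5000 cells/well in DMEM/10% FBS, exposed to compound. Luminescence read after luciferase reagent; EC50 taken from concentration-response curves.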

[3] = Pharmacokinetic analysis after IV or SC administration in male CD1 mice
Protocol: Pharmacokinetic parameters of the drugs were calculated by methods of model dependence (for data obtained from IV) and model independence (data obtained from SC).

[4] = tested on: male C57B1/6J mice; assay: Oral glucose tolerance test in male C57B1/6J mice; format: in vivo; conditions: 250 μg/kg
Protocol: 12-16 week-old male C57B1/6J mice (Nanjing University model animal research center) were randomly divided into groups 8 in each group, according to similar blood glucose (assessed by the blood samples obtained from the tail tip). After fasting (for 6 hours), the animals were administrated, and about 4 hours later, initial blood samples (fasting blood glucose level) were taken. Subsequently, the animals were administrated with an oral dose of glucose, and then put back into their cages (t=0). Blood glucose was measured at t=15 minutes, t=30 minutes, t=60 minutes, t=90 minutes and t=120 minutes. And then the animals were administrated with an oral dose of glucose again, and blood glucose was tracked until 8 hours.

T2 sequence (P43220 24-463): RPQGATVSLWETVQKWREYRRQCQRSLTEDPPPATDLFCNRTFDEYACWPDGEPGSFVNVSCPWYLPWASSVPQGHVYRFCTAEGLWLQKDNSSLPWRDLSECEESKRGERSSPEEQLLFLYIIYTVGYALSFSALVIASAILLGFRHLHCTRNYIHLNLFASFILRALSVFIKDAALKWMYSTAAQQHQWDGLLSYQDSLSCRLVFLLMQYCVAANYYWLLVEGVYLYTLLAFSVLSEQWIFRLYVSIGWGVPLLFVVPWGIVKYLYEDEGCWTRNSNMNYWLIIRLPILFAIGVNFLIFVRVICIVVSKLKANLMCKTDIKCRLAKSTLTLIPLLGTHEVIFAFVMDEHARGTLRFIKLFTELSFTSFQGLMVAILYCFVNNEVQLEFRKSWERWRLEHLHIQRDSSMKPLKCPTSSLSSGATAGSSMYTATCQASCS
T1 sequence (P47871 26-477): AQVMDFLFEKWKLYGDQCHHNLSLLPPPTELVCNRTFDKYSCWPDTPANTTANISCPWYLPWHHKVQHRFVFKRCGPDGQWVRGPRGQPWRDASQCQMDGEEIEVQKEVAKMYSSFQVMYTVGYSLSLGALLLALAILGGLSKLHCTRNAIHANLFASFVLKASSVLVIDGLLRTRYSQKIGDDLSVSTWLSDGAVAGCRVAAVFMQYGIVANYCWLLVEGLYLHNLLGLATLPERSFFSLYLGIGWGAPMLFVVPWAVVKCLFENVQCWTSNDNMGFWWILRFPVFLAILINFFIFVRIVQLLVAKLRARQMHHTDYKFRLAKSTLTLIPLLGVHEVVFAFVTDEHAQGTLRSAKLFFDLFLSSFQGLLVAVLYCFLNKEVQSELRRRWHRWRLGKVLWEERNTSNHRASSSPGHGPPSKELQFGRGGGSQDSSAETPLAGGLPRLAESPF

| SMILES | EC50 ([1]; read-out: GCGR (EC50)) [nM] | GLP-1R/GCGR [2] | clinical adverse effect ([3]; IV or SC route, male CD1 mice) | Tmax ([3]; mouse, in vivo, iv) [h] | half-life ([3]; mouse, in vivo, iv) [h] | EC50 [1] [nM] | EC50 [2] [nM] | AUC of blood glucose in all four OGTT curve periods (0-480 min) compared with carrier (PBS) ([4]; P<0.05) | effect on oral glucose tolerance ([4]; male C57B1/6J mice) |
| --- | --- | --- | --- | --- | --- | --- | --- | --- | --- |
| CSCC[C@H](NC(=O)[C@H](CC(C)C)NC(=O)[C@H](Cc1c[nH]c2ccccc12)NC(=O)[C@H](CCC(N)=O)NC(=O)[C@@H](NC(=O)[C@H](Cc1ccccc1)NC(=O)[C@H](CC(=O)O)NC(=O)[C@H](CCC(N)=O)NC(=O)[C@H](C)NC(=O)[C@H](CCCNC(=N)N)NC(=O)[C@H](CCCNC(=N)N)NC(=O)C(C)(C)NC(=O)[C@H](CC(=O)O)NC(=O)[C@H](CC(C)C)NC(=O)[C@H](CCCCN)NC(=O)[C@H](CCCCNC(=O)CCOCCOCCNC(=O)CCOCCOCCNC(=O)CC[C@H](NC(=O)CCCCCCCCCCCCCCCCC(=O)O)C(=O)O)NC(=O)[C@H](CO)NC(=O)[C@H](Cc1ccc(O)cc1)NC(=O)[C@H](CC(=O)O)NC(=O)[C@H](CO)NC(=O)[C@@H](NC(=O)[C@H](Cc1ccccc1)NC(=O)[C@@H](NC(=O)CNC(=O)[C@H](CCC(N)=O)NC(=O)[C@@H](CO)NC(=O)[C@@H](N)Cc1c[nH]cn1)[C@@H](C)O)[C@@H](C)O)C(C)C)C(=O)N[C@@H](CC(N)=O)C(=O)N[C@H](C(=O)NCC(=O)NCC(=O)N1CCC[C@H]1C(=O)N[C@@H](CO)C(=O)N[C@@H](CO)C(=O)NCC(=O)N[C@@H](C)C(=O)N1CCC[C@H]1C(=O)N1CCC[C@H]1C(=O)N1CCC[C@H]1C(=O)N[C@@H](CO)C(N)=O)[C@@H](C)O [Compound 18] (H-H[dS]QGTFTSDYSK([PEG2-PEG2-γGlu-C18 diacid])KLD[Aib]RRAQDFVQWLMNTGGPSSGAPPPS-NH2; N-terminus assumed) | 0.18 | 4.2 | – | – | – | – | – | – | – |
| CCCCCCCCCCCCCCCC(=O)NCCOCCOCCC(=O)NCCOCCOCCC(=O)NCCCC[C@H](NC(=O)[C@H](C)NC(=O)[C@H](C)NC(=O)[C@H](CCCCN)NC(=O)[C@H](CCC(=O)O)NC(=O)[C@H](CC(=O)O)NC(=O)[C@H](CC(C)C)NC(=O)[C@H](Cc1ccc(O)cc1)NC(=O)[C@H](CCCCN)NC(=O)[C@H](CO)NC(=O)[C@H](Cc1ccc(O)cc1)NC(=O)[C@H](CC(=O)O)NC(=O)[C@H](CO)NC(=O)[C@@H](NC(=O)[C@H](Cc1ccccc1)NC(=O)[C@@H](NC(=O)CNC(=O)[C@H](CCC(N)=O)NC(=O)[C@@H](CO)NC(=O)[C@@H](N)Cc1c[nH]cn1)[C@@H](C)O)[C@@H](C)O)C(=O)N[C@@H](CCC(=O)O)C(=O)N[C@@H](Cc1ccccc1)C(=O)N[C@H](C(=O)N[C@@H](CCC(=O)O)C(=O)N[C@@H](Cc1c[nH]c2ccccc12)C(=O)N[C@@H](CC(C)C)C(=O)N[C@@H](CC(C)C)C(=O)N[C@@H](CC(N)=O)C(=O)NCC(=O)NCC(=O)N1CCC[C@H]1C(=O)N[C@@H](CO)C(=O)N[C@@H](CO)C(=O)NCC(=O)N[C@@H](C)C(=O)N1CCC[C@H]1C(=O)N1CCC[C@H]1C(=O)N1CCC[C@H]1C(=O)N[C@@H](CO)C(N)=O)[C@@H](C)CC [Compound 23] (H-H[dS]QGTFTSDYSKYLDEKAAK([PEG2-PEG2-Palmitoyl])EFIEWLLNGGPSSGAPPPS-NH2) | – | 0.30 | no clinical adverse effect | ~12 | 4 to 6 | 0.43 | 0.13 | significantly decreased | significantly reduced the oral glucose tolerance |
